Here are results for one compound from patent publication US9999690B2, “Labeled compounds and methods of imaging, diagnosing cartilage disorders and diseases, and monitoring cartilage health using labeled and unlabeled compounds” (Perosphere Inc., priority 2013, dated 2018).

The solubility is how much of the substance goes into solution per volume. High values mean a readily soluble substance, low ones a poorly soluble substance.

This data set is described as follows: physchem. To be noted: water.

For the compound `N=C(N)NCCCC(N)C(=O)NCCCN1CCN(CCCNC(=O)C(N)CCCNC(=N)N)CC1` (stereo not shown) [formula V, 2-Amino-5-guanidino-pentanoic acid (3-{4-[3-(2-amino-5-guanidino-pentanoylamino)-propyl]-piperazin-1-yl}-propyl)-amide], the solubility is more than 100 mg/mL.
